In US20240229155A1, “M[…] FOR THE TREATMENT OF GLIOBLASTOMA AND OTHER CANCERS” (Duke University, priority 2021, published 2024):
“Also recorded” adds a separate entry of the source.

What was measured:
STING = assay: Western blot of STING after decitabine treatment of GBM cell lines; assay type: cell-based, human; settings: 250 nM decitabine for 5 days vs DMSO
Method: (§1) Cells were seeded at density of 30,000 cells/well in 6-well plates. Each cell line was seeded in 2 mL of the same media in which they were cultured (cells were cultured in media according to ATCC). The following day (Day 0), a volume of decitabine working solution was added directly to the wells to reach the desired concentration. In the DMSO control wells, DMSO was diluted 1:100 in PBS, with the same amount of DMSO:PBS solution added as that of the decitabine condition. On days 1-5, the media was refreshed, such that the media being added to the wells contained the respective decitabine/DMSO concentration and were prepared immediately before their addition. The cells were harvested for protein on day 6.
(§2) Western Blots: Cells were washed 2× with ice cold 1×PBS and lysed on ice with RIPA lysis buffer, containing protease/phosphatase inhibitors, and benzonase. Lysates were spun down for 15 min 14,000×g at 4 degrees C. Protein was denatured, ran on 4-12% NuPage Bis-Tris gels in 1×MOPS buffer, and transferred to PVDF membrane. The membrane was blocked in 5% Blotting grade blocker (BioRad 170-6404) dissolved in 1×TBS 0.1% TWEEN. Primary antibody was added according to manufacturer's protocol and incubated overnight at 4° C. Membranes were then incubated with secondary HRP antibody and screened with Supersignal Pico ECL. […]

STING (TMEM173) mRNA = assay: STING mRNA expression (qPCR) after decitabine treatment of GBM cell lines; assay type: cell-based, human; settings: 250 nM decitabine for 5 days vs DMSO, normalized to beta actin
Method: (§3) Decitabine Treatment: Decitabine was dissolved in DMSO to produce a stock concentration of 10 mM. This stock concentration was diluted directly before each treatment at a 1:100 ratio with 1×PBS to create the working solution with a concentration of […].
(§4) Cells were seeded at density of 30,000 cells/well in 6-well plates. Each cell line was seeded in 2 mL of the same media in which they were cultured (cells were cultured in media according to ATCC). The following day (Day 0), a volume of decitabine working solution was added directly to the wells to reach the desired concentration. […]
Protocol for mRNA Expression: RNA expression was measured by converting 250 ng to lug of RNA to cDNA with the iScript cDNA conversion kit (BioRad Cat #1708891) in 20 μL total. […]
20× PrimePCR Primers targeting B-actin (BioRad #qHsa CED0036269), and TMEM173 (BioRad #qHsa CID00010565), were used. Fold change (2^(−Delta Delta Ct) was calculated using B-actin as the housekeeping gene.
Quantitative gene expression analysis: RNA/DNA were co-extracted from cells using Qiagen AllPrep DNA/RNA/miRNA Universal Kit mini kit (Qiagen) for decitabine experiments, and Quick-DNA/RNA™Miniprep Kit for baseline cell expression/methylation, following the manufacturer's protocols. RNA expression was measured by converting 250 ng to 1 μg RNA to 25 cDNA with the iScript cDNA conversion kit (BioRad). […]

DNMT1 = target: T1, DNMT1 (Homo sapiens, UniProt P26358); assay: Western blot of DNMT1 after decitabine treatment of GBM cell lines; assay type: cell-based; settings: 250 nM decitabine for 5 days vs DMSO; GBM cell lines with high STING promoter methylation
T1 construct: Western blot analysis showing DNMT1 and STING expression following decitabine or DMSO treatment; endogenous in cells; host or cells: GBM/glioma cell lines
T1 sequence (P26358 whole entry): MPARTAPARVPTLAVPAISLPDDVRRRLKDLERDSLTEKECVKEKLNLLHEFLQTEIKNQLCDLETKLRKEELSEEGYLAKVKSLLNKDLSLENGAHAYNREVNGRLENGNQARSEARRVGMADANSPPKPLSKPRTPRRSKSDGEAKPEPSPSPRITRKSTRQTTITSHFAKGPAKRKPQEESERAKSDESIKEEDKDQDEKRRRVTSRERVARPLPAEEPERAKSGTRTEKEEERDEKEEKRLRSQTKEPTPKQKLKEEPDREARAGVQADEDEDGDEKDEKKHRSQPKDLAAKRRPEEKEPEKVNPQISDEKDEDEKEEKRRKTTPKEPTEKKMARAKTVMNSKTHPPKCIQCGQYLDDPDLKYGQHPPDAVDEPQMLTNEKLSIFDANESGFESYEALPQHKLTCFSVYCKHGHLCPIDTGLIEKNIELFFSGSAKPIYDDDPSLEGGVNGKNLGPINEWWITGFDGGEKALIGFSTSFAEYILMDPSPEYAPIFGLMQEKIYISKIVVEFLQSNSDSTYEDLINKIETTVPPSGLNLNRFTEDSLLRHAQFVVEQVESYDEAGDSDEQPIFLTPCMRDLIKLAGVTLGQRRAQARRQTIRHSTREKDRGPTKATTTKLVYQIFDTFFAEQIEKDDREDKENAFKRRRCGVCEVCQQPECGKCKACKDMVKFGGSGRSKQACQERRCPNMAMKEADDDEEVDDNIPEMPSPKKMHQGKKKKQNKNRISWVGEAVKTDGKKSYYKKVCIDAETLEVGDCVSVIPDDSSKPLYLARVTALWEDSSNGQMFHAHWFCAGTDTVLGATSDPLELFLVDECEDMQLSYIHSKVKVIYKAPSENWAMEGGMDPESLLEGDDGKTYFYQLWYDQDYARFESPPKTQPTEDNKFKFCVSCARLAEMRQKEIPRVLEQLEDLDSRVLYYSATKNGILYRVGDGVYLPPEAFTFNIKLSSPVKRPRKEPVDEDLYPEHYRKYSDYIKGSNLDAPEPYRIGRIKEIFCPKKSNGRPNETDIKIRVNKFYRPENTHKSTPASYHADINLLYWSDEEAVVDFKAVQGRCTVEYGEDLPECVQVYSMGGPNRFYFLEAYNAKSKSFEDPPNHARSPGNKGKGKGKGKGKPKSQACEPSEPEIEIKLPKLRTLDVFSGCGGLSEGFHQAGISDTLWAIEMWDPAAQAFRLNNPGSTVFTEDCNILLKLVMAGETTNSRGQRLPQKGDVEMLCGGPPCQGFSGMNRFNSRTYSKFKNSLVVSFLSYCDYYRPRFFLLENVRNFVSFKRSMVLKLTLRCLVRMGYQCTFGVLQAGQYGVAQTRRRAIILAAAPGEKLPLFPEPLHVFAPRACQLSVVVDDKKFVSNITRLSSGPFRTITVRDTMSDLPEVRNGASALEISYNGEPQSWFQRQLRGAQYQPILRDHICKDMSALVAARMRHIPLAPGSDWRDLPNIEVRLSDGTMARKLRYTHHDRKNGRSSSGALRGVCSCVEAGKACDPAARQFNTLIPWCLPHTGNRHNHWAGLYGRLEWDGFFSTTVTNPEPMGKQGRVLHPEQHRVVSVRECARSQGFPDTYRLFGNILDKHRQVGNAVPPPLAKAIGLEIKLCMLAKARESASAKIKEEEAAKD
Method: as §1, §2

STING pathway = assay: Western blot for STING pathway activation: decitabine pretreatment followed by 2′3′-cGAMP; assay type: cell-based, human; settings: for STING pathway activation (pTBK1 and pIRF3 expression) in response to cGAMP: 250 nM decitabine for 5 days, then 2′3′-cGAMP, protein at 4 h and 24 h, cell lines previously unresponsive to cGAMP
Method: (§5) Western Blots: Cells were washed 2× with ice cold 1×PBS and lysed on ice with RIPA lysis buffer, containing protease/phosphatase inhibitors, and benzonase. Lysates were spun down for 15 min 14,000×g at 4 degrees C. Protein was denatured, ran on 4-12% NuPage Bis-Tris gels in 1×MOPS buffer, and transferred to PVDF membrane. The membrane was blocked in 5% Blotting grade blocker (BioRad 170-6404) dissolved in 1×TBS 0.1% TWEEN. Primary antibody was added according to manufacturer's protocol and incubated overnight at 4° C. Membranes were then incubated with secondary HRP antibody and screened with Supersignal Pico ECL. A ChemiDoc MP (BioRad) and an iBright 1500FL imager (ThermoFisher) were used to detect the ECL signal.
Protein Isolation and Western Blotting: Cells were washed 2× with ice cold 1×PBS and lysed on ice with RIPA lysis buffer, containing protease/phosphatase inhibitors, and benzonase. Lysates were spun down for 15 min at 14,000×g at 4° C. Protein was denatured at 95° C. for 5 min, ran on 4-12% NuPage Bis-Tris gels in 1×MOPS buffer, and transferred to PVDF membrane. The membrane was blocked in 5% Blotting grade blocker (BioRad) dissolved in 1×TBS 0.1% TWEEN20. Primary antibody was added according to manufacturer's protocol and incubated overnight at 4° C. Membranes were incubated with secondary HRP antibody (Cell Signaling) and screened with Supersignal Pico ECL (ThermoFisher). A ChemiDoc MP (BioRad) and an iBright 1500FL imager (ThermoFisher) were, used to detect the ECL signal. Primary antibodies were used to the following targets: pSTING (Ser366), STING, cGAS, pTBK1 (Ser172), TBK1, pIRF3 (Ser396), IRF3, pSTAT1 (Tyr701), STAT1, IFIT1, ISG15, DNMT1, β-actin (Cell Signaling), IRF3 (Biolegend).
Cell treatment with decitabine: Decitabine (Millipore-Sigma) was dissolved in DMSO to stock concentration of 10 mM and diluted directly before each treatment in 1×PBS. Cells were seeded at 3×10^4 cells/well in 6-well plates (protein) or 1.7×10^5 cells in 10 cm dishes (RNA/DNA). Matched concentrations of DMSO was used as a control. Media was refreshed with treatment daily for 5 days. […]

cGAS = assay: Western blot of cGAS after decitabine treatment of GBM cell lines; assay type: cell-based, human; settings: 250 nM decitabine for 5 days vs DMSO
Method: as §1, §2

[1] = system: CpG sites in a ~400 nucleotide window centered on cg16983159; assay: Semi-quantitative methylation sequencing assay of bisulfite-treated glioma cell lines; assay type: cell-based, human; settings: LN229 and U138 cells, decitabine vs DMSO
Method: Semi-quantitative methylation sequencing assay: Bisulfite treated DNA was PCR amplified for 40 cycles at 62° C. annealing temperature. Amplification reaction—10 μM of each primer, 25 mM MgCl2, 2.5 mM dNTPs, lx buffer, 0.7U HotStarTaq (Qiagen). Amplicons were sent to Azenta for purification and sanger sequencing with difficult template. Sequence traces were aligned. Percent methylation at the CpGs in the amplicons were estimated by comparing the C peak to the T peak.
Cell treatment with decitabine: Decitabine (Millipore-Sigma) was dissolved in DMSO to stock concentration of 10 mM and diluted directly before each treatment in 1×PBS. Cells were seeded at 3×10^4 cells/well in 6-well plates (protein) or 1.7×10^5 cells in 10 cm dishes (RNA/DNA). Matched concentrations of DMSO was used as a control. Media was refreshed with treatment daily for 5 days. Cells were harvested for protein, RNA and DNA on day 6, or treated with 2′3′-cGAMP for an additional 4 and 24 h and harvested for protein.

[2] = system: STING promoter CpG site cg16983159; assay: cg16983159 site-specific methylation qPCR assay after decitabine treatment of GBM cell lines; assay type: cell-based, human; settings: 250 nM decitabine for 5 days vs DMSO; GBM cell lines with high STING promoter methylation
Method: as §3
as §4, with “concentration. In the DMSO control wells, DMSO was diluted 1:100 in PBS, with the same amount of DMSO:PBS solution added as that of the decitabine condition.” for “concentration.”
STING Methylation qPCR Methods: Bisulfite conversion of 25 ng to lug gDNA was done using the EpiTect Bisulfite Kit (Qiagen 59104) following manufactures protocol. […] Percent methylation was calculated as 1/(1+1/(2^-ΔCt))×100 with ΔCt=FAM −VIC. […]
cg16983159 site-specific methylation qPCR assay: A site-specific qPCR assay for measuring cg16983159 methylation was developed using the method described by Yu et al. (Yu et al., 2019). […] Percent methylation was calculated as 100%×1/1+2ΔCt where ΔCt=FAM−VIC. […]

GBM cell suspensions = assay: Cytokine secretion of CD14-separated GBM cell suspensions after 2′3′-cGAMP; assay type: cell-based, human; settings: GBM cell suspensions separated by CD14; 48 h
[3] = system: GBM tissue slice cultures; assay: Ex vivo GBM slice culture assay with 2′3′-cGAMP; assay type: cell-based, human; settings: 5 μg/ml, 48 h, TAMC vs tumor cells
Method: GBM slice culture assay: Surgically resected, de-identified newly diagnosed GBM tissue was acquired under a Duke IRB approved protocol within hours of resection. Slice culture studies in this manuscript are extended/additional analyses of slice culture data sets reported in a prior study where the pattern of PRR signaling vs virotherapy was compared (Brown et al., 2021). A portion (˜25%) of fresh tissue was analyzed by flow cytometry to determine relative immune cell subset densities using the following flow cytometry panel after 1:20 Human Tru-Stain FcX treatment (BioLegend): CD45-BUV395 (BD Biosciences), CD14-BV421, CD33-BV510, CD49d-BV605, HLA-DR-BV786, CD31-FITC, CD3/19-BUV737, CD11b-APC, CD16-BV711, CD15-APC-fire7, and either CD155-PE or isotype control-PE antibody (all BioLegend); viability stain (7-AAD, BioLegend) was added after staining. Fresh remaining tissue was sliced into quarters, followed by slicing to −2 mm diameter fragments with a #10 scalpel (Hill-Rom). Slices were cultured in RPMI-1640 (Invitrogen) supplemented with 10% FBS (Sigma-Aldrich), 100 ng/ml EGF (R&D Biosystems); 5 μg/ml insulin (Gibco); 100 ng/ml hydrocortisone (Sigma-Aldrich). […] Supernatant cytokines were measured using the Human Antiviral Legendplex kit and Human Pro-inflammatory Chemokine kit (both BioLegend), per manufacturer's instructions. […]

[4] = system: GBM tissue slice cultures; settings: ex vivo GBM tissue slice cultures (Brown et al., 2021); cited from earlier work
[5] = system: cGAS/STING DNA sensing pathway; assay: Response of GBM cell lines to cGAS (ISD) and STING (cGAMP) agonists, Western blot; assay type: cell-based, human
Method: as §5
Protein Isolation and Western Blotting: Cells were washed 2× with ice cold 1×PBS and lysed on ice with RIPA lysis buffer, containing protease/phosphatase inhibitors, and benzonase. Lysates were spun down for 15 min at 14,000×g at 4° C. Protein was denatured at 95° C. for 5 min, ran on 4-12% NuPage Bis-Tris gels in 1×MOPS buffer, and transferred to PVDF membrane. The membrane was blocked in 5% Blotting grade blocker (BioRad) dissolved in 1×TBS 0.1% TWEEN20. Primary antibody was added according to manufacturer's protocol and incubated overnight at 4° C. Membranes were incubated with secondary HRP antibody (Cell Signaling) and screened with Supersignal Pico ECL (ThermoFisher). […]

| SMILES | STING protein expression (STING) | STING mRNA expression (STING (TMEM173) mRNA) | DNMT1 expression (Western blot) (DNMT1) | STING pathway activation (pTBK1 and pIRF3 expression) in response to cGAMP (STING pathway) | STING pathway activation (pTBK1 and pIRF3 expression) in response to cGAMP (STING pathway; listed as decitabine) | markers of downstream IFN activation (pSTAT1, IFIT1, ISG15) (STING pathway; decitabine pretreatment for 5 days followed by cGAMP) | cGAS expression (Western blot) (cGAS) | methylation state of CpG sites around cg16983159 (bisulfite sequencing) [1] | STING cg16983159 methylation [2] | CXCL10 induction (GBM cell suspensions) | TNF induction (GBM cell suspensions) | IFIT1 induction (flow cytometry) [3] | CXCL10 induction [4] | type I IFNs induction [4] | downstream response (pTBK1, pIRF3) to STING agonist ([5]; A172 cell line, high baseline STING expression) | downstream response (pTBK1, pIRF3) to STING agonist ([5]; U138MG cell line, no STING expression) |
| --- | --- | --- | --- | --- | --- | --- | --- | --- | --- | --- | --- | --- | --- | --- | --- | --- |
| Nc1ncn([C@H]2C[C@H](O)[C@@H](CO)O2)c(=O)n1 [Decitabine, 5-azadeoxycytidine] | increased | increased | significant suppression; also recorded: suppressed | restores STING signaling | reactivation or enhancement of the pathway | induced | induces | cg16983159 and upstream CpG sites are demethylated, while downstream sites are not | decreased |  |  |  |  |  |  |  |
| Nc1nc2c(ncn2[C@@H]2O[C@@H]3COP(=O)(O)O[C@H]4[C@@H](O)[C@H](n5cnc6c(N)ncnc65)O[C@@H]4COP(=O)(O)O[C@@H]2[C@@H]3O)c(=O)[nH]1 [cGAMP, 2′3′-cGAMP] |  |  |  |  |  |  |  |  |  | occurred only in CD14+ containing glioma cell suspensions | occurred only in CD14+ containing glioma cell suspensions | induced selectively in TAMC | induced | induced | strong downstream response | failed to activate pTBK1 or pIRF3 |
